Experimental data taken from patent publication US9856218B2, “Inhibitors of PRMT5 and methods of their use” (Ohio State Innovation Foundation, priority 2013, dated 2018).
Entries after “also recorded” stand apart in the source; their conditions may differ.

How the values were obtained:
[1] = test system: symmetrically dimethylated H3 (H3R8me2) and H4 (H4R3me2) in AML samples; experiment: Western blotting of PRMT5 histone marks; assay type: cell-based; details: FIG. 33B, listed as C12
Experimental: Whole cell lysates were prepared by suspending cell pellets in RIPA buffer for 20 min (1% NP-40, 0.1% SDS, 150 mM NaCl, 50 mM Tris, pH 8.0), then supplemented with 1× complete EDTA free protease inhibitor (Roche) and 1× PhosStop (Roche). Lysates were separated by 4-20% SDS-PAGE and transferred to PVDF membrane (GE Healthcare, Piscataway, N.J.). Membranes were blocked with 5% milk or BSA in 1×TBS with 0.1% Tween 20 for 1 hour at room temperature with shaking. Primary antibodies for ACTIN, GAPDH and FLT3 (Santa Cruz Biotechnology, Santa Cruz Calif.), P65 (Cell signaling), PRMT5 and SP1 (Millipore), H4R3, H3R8, H3 and H4 (Abcam), were diluted 1:1000 or 1:2000 in 5% milk or BSA and incubated for 1-2 hr at room temperature. Membranes were washed using 1×TBS-T, incubated with HRP-conjugated secondary antibodies diluted in 1×TBS-T with 5% milk or BSA, washed, and developed using SuperSignal West Dura Chemiluminescent Substrate (Thermo Scientific). Whole cell lysate (at least 500 μg) was used to pull down protein complexes using Catch and Release v2.0 Reversible Immunoprecipitation System (Millipore) and ˜4 μg antibodies against PRMT5, SP1, p65 and 1 μg normal IgG as negative control (Millipore). Denatured pull down samples were subjected to regular western blotting with exception of using TrueBlot IP secondary antibody (Rockland) for immunodetection. […]

multiple cell lines = experiment: Proliferation of multiple cell lines (FIG. 59); assay type: cell-based; details: FIG. 59A-E
Experimental: Proliferation of multiple cell lines was evaluated for CMPD 5, CMPD 7, HLCL61, HLCL-65, and HLCL-66 (FIG. 59A-E).

AML cell lines = experiment: MTS growth inhibition assay, summary over cell lines; assay type: cell-based
Experimental: Clonogenic assays were set up by plating 1×10^3 cell/mL in semi-solid methylcellulose medium (MethoCult, Stem Cell Technologies). Colonies were counted after 10-14 days using an inverted microscope. Growth inhibition assays were measured using a colorimetric MTS assay: 5×10^4 cells were plated in 100 μL final volume in a 96-well plate in the presence of different concentrations of C12 for 24, 48 and 72 hours at 37° C. Afterwards, 20 μL of the CellTiter 96W AQueous One Solution Reagent, which contains tetrazolium compound [3-(4,5-[…])-5-(3-carboxymethoxyphenyl)-2-(4-sulfophenyl)-2H-tetrazolium, inner salt; MTS] and an electron coupling reagent (phenazine ethosulfate; PES) (Promega, Madison Wis.), was added to each well. Within 1-4 hours of incubation at 37° C., the optical density at 490 and 690 nm was measured. Cell viability was calculated with respect to the control samples and reference background wavelength at 690 nm. At least three independent experiments were performed. […]
Referring to FIGS. 34A and 34B, a colorimetric MTS assay was used to measure the proliferation rate of AML cell lines and primary blasts from patients after 48 hours incubation with a PRMT5 inhibitor compound (HLCL61 or C12). The dose-dependent decrease in absorbance indirectly correlates with the number of metabolically active live cells. […]

[2] = test system: AML cell lines (MV4-11 (FLT3-ITD) and Kasumi-1 (KITmut)); experiment: Apoptosis, AnnexinV and PI flow cytometry; assay type: cell-based; details: 25 and 50 μM for 48 hours
Experimental: Cells (1×10^6) were washed and passed through a […] filter (BD), then re-suspended in 200 μL binding buffer with or without 5 μL AnnexinV (for apoptosis detection) or CD11b (for maturation detection) antibody (BD Biosciences, Billerica, Mass.). After 15 min. of incubation cells were washed with PBS, re-suspended in 500 μL flow buffer and analyzed on a FACSCalibur cytometer (BD Biosciences). For apoptosis detection, 5 μL propidium iodide (PI) (BD Biosciences) was added to cell before running flow cytometry. Sorting for GFP-positive cells was carried out on BD FACS Aria instrument after filtering and washing cells 2× with ice cold PBS supplemented with 2% calf bovine serum and re-suspending in FACS buffer.
PRMT5 inhibition by C12 was also effective in promoting apoptosis and differentiation.
Referring to FIG. 36, a flow cytometry analysis of AML cell lines treated with PRMT5 inhibitor and stained for cell surface markers AnnexinV and PI indicates a dose-dependent increase in the percentage of apoptotic and dead cells when compared to DMSO-treated cells. Induction of programmed cell death was stronger in the FLT3-ITD AML cell line MV4-11.

[3] = target: T1, affinity-purified hSWI/SNF associated PRMT5 (Homo sapiens, UniProt O14744); experiment: Histone methyltransferase assay, [3H]SAM; assay type: biochemical; details: for inhibition of PRMT5 methylase activity, potency among inhibitors: FIG. 33A
T1 construct: made in house
T1 sequence (O14744 whole entry): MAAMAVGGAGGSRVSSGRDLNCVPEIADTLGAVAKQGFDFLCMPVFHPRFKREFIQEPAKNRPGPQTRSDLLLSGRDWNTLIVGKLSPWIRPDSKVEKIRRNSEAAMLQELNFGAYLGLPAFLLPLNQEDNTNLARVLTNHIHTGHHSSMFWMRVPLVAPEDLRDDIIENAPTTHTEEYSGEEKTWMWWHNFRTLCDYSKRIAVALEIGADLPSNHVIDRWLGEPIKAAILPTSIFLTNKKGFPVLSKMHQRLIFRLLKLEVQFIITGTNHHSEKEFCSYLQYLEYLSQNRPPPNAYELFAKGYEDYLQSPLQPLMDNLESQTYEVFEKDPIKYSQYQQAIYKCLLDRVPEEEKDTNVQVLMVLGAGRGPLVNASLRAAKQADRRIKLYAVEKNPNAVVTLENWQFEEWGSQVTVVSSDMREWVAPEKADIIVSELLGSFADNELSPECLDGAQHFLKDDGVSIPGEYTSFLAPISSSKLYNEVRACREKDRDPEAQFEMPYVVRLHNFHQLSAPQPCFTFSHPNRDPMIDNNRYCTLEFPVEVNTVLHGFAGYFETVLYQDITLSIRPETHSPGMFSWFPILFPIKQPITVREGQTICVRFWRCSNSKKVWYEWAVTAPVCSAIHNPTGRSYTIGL
T1 sequence (Q9BQA1 whole entry partner): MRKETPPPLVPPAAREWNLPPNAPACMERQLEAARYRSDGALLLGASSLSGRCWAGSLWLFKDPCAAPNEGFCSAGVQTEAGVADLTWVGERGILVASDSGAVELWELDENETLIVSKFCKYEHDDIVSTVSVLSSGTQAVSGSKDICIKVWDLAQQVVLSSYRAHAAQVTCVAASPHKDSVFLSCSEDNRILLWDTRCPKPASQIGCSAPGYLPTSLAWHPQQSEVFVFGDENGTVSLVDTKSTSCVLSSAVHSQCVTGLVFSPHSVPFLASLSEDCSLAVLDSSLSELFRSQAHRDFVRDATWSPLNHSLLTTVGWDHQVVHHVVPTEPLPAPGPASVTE
Experimental: (§1) Histone methylation was performed in the presence of DMSO, and 1-40 μM inhibitor compounds. […] After 1.5 h incubation at 30° C., reaction mixtures were spotted on Whatman P-81 filter paper, washed five times with 10 mL of […] sodium carbonate buffer (pH 9.0) to remove unincorporated [3H]SAM, and methylated peptides were detected by scintillation counting.
Type II PRMT enzymes repress gene transcription and symmetrically dimethylate H3R8 and H4R3, while type I PRMT enzymes activate gene transcription and asymmetrically dimethylate H4R3. Purified PRMT5, PRMT1, PRMT4 and PRMT7 were obtained to perform the assay.
as §1, with “HLCL-32, HLCL-10, HLCL-61 and HLCL-64.” for “inhibitor compounds.”, “After a” for “After”, “C.” for “C.,”, “[^3H]SAM,” for “[3H]SAM,”

CCn1c2ccccc2c2cc(CNCc3ccccc3OC)ccc21 [HLCL-61]
methylation inhibition of histones H3 and H4 [1]: most effective; also recorded: down-regulation of symmetrically dimethylated H3 (H3R8me2) and H4 (H4R3me2) | potency, proliferation of multiple cell lines (multiple cell lines): low micromolar range | IC50 (AML cell lines; 48 h post treatment, range over AML cell lines): 21 to 21.5 µM | inhibition of cell proliferation (AML cell lines; AML cell lines and primary patients' blasts, 1 to 100 μM): dose-dependent (1 to 100 μM) inhibition of cell proliferation | apoptosis [2]: dose-dependent increase in apoptosis | inhibition of PRMT5 enzyme ([3]; 10 μM, FIG. 17B): the only enzyme that is affected is PRMT5 | IC50 ([3]; FIG. 16, 1-40 μM compound, HeLa S3 core histones, read-out: PRMT5 methylation activity IC50): ~5 µM | inhibition of PRMT5 methylase activity, potency among inhibitors ([3]; listed as C12): most potent of these inhibitors | inhibition of PRMT5 methylase activity, potency among inhibitors ([3]; listed as CMPD 12): most potent in inhibiting enzymatic activity of PRMT5
